Values of other authors as cited in patent US20100227874A1, “REDUCTION OF OXIDATIVE STRESS DAMAGE DURING OR AFTER EXERCISE” (NESTEC S.A., priority 2007, published 2010).

Test system: rat adipocytes
Details: insulin-potentiating epididymal fat-cell assay with rat adipocytes

Structure (SMILES)	Insulin activity in vitro
O=C(O[C@@H]1Cc2c(O)cc(O)cc2O[C@@H]1c1ccc(O)c(O)c1)c1cc(O)c(O)c(O)c1 [epicatechin gallate]	enhance insulin activity
O=C(O[C@@H]1Cc2c(O)cc(O)cc2O[C@@H]1c1cc(O)c(O)c(O)c1)c1cc(O)c(O)c(O)c1 [epigallocatechin gallate]	enhance insulin activity
